Assay results taken from PubChem BioAssay AID1259407 (Chemical Carcinogenesis Research Information System (CCRIS), 2018).
The source made the active and inactive calls. How the calls were made is not given here.

Test system: CCRIS mutagenicity, Ames/micronucleus/aberration tests
Experiment: CCRIS mutagenicity studies
[1] = Test System: AMES SALMONELLA TYPHIMURIUM, Strain/Indicator: TA98, Metabolic Activation: NONE, Method: STANDARD PLATE
[2] = Test System: AMES SALMONELLA TYPHIMURIUM, Strain/Indicator: TA98, Metabolic Activation: RAT, LIVER, S-9, AROCLOR 1254, Method: STANDARD PLATE
[3] = Test System: AMES SALMONELLA TYPHIMURIUM, Strain/Indicator: TA100, Metabolic Activation: NONE, Method: STANDARD PLATE
[4] = Test System: AMES SALMONELLA TYPHIMURIUM, Strain/Indicator: TA100, Metabolic Activation: RAT, LIVER, S-9, AROCLOR 1254, Method: STANDARD PLATE
[5] = Test System: AMES SALMONELLA TYPHIMURIUM, Strain/Indicator: TA100, Metabolic Activation: NONE, Method: PREINCUBATION

Measured: mutagenic call

COc1cc(OC)nc(NC(=O)NS(=O)(=O)c2ncccc2C(=O)N(C)C)n1
inactive: Test System: Chinese hamster lung cells, Strain/Indicator: V79 (HPRT)/6-Thioguanine, Metabolic Activation: None, Method: Standard plate? inactive; negative | Test System: Chinese hamster lung cells, Strain/Indicator: V79 (HPRT)/6-Thioguanine, Metabolic Activation: S-9, Method: Standard plate? inactive; negative | Test System: TA97, Metabolic Activation: None, Method: Preincubation? inactive; negative | Test System: TA97, Metabolic Activation: S-9, Method: Preincubation? inactive; negative | Test System: TA98, Metabolic Activation: None, Method: Preincubation? inactive; negative | Test System: TA98, Metabolic Activation: S-9, Method: Preincubation? inactive; negative | Test System: TA100, Metabolic Activation: None, Method: Preincubation? inactive; negative | Test System: TA100, Metabolic Activation: S-9, Method: Preincubation? inactive; negative | Test System: TA102, Metabolic Activation: None, Method: Preincubation? inactive; negative | Test System: TA102, Metabolic Activation: S-9, Method: Preincubation? inactive; negative

NC(=O)CNC(=O)N(CCCl)N=O
active: Test System: AMES SALMONELLA TYPHIMURIUM, Strain/Indicator: TA1535, Metabolic Activation: NONE, Method: STANDARD PLATE active; positive

Cc1cc(Cl)ccc1OCCCC(=O)O
inactive: Test System: AMES SALMONELLA TYPHIMURIUM, Strain/Indicator: TA97, Metabolic Activation: NONE, Method: STANDARD PLATE inactive; negative | Test System: AMES SALMONELLA TYPHIMURIUM, Strain/Indicator: TA97, Metabolic Activation: RAT, LIVER, S-9, AROCLOR 1254, Method: STANDARD PLATE inactive; negative | [1] inactive; negative | [2] inactive; negative | [3] inactive; negative | [4] inactive; negative | Test System: AMES SALMONELLA TYPHIMURIUM, Strain/Indicator: TA102, Metabolic Activation: NONE, Method: STANDARD PLATE inactive; negative | Test System: AMES SALMONELLA TYPHIMURIUM, Strain/Indicator: TA102, Metabolic Activation: RAT, LIVER, S-9, AROCLOR 1254, Method: STANDARD PLATE inactive; negative

O=C1NCCN1/N=C/c1ccc([N+](=O)[O-])o1
active: Test System: AMES SALMONELLA TYPHIMURIUM, Strain/Indicator: TA98, Metabolic Activation: NONE active; positive | Test System: AMES SALMONELLA TYPHIMURIUM, Strain/Indicator: TA100, Metabolic Activation: NONE active; positive | Test System: AMES SALMONELLA TYPHIMURIUM, Strain/Indicator: TA100, Metabolic Activation: S-9 active; positive
inactive: Test System: AMES SALMONELLA TYPHIMURIUM, Strain/Indicator: TA98, Metabolic Activation: S-9 inactive; negative

C[C@@H]1C[C@@H]([C@H](O)CC2CC(=O)NC(=O)C2)C(=O)[C@@H](C)C1
inactive: Test System: AMES SALMONELLA TYPHIMURIUM, Strain/Indicator: TA97, Metabolic Activation: HAMSTER, LIVER, S-9, AROCLOR 1254 (10 OR 30%), Method: PREINCUBATION inactive; negative | Test System: AMES SALMONELLA TYPHIMURIUM, Strain/Indicator: TA97, Metabolic Activation: NONE, Method: PREINCUBATION inactive; negative | Test System: AMES SALMONELLA TYPHIMURIUM, Strain/Indicator: TA97, Metabolic Activation: RAT, LIVER, S-9, AROCLOR 1254 (10 OR 30%), Method: PREINCUBATION inactive; negative | Test System: AMES SALMONELLA TYPHIMURIUM, Strain/Indicator: TA98, Metabolic Activation: HAMSTER, LIVER, S-9, AROCLOR 1254 (10 OR 30%), Method: PREINCUBATION inactive; negative | Test System: AMES SALMONELLA TYPHIMURIUM, Strain/Indicator: TA98, Metabolic Activation: NONE, Method: PREINCUBATION inactive; negative | [1] inactive; negative | Test System: AMES SALMONELLA TYPHIMURIUM, Strain/Indicator: TA98, Metabolic Activation: RAT, LIVER, S-9, AROCLOR 1254 (10 OR 30%), Method: PREINCUBATION inactive; negative | Test System: AMES SALMONELLA TYPHIMURIUM, Strain/Indicator: TA98, Metabolic Activation: RAT, LIVER, S-9, AROCLOR, Method: STANDARD PLATE inactive; negative | Test System: AMES SALMONELLA TYPHIMURIUM, Strain/Indicator: TA100, Metabolic Activation: HAMSTER, LIVER, S-9, AROCLOR 1254 (10 OR 30%), Method: PREINCUBATION inactive; negative | [5] inactive; negative | [3] inactive; negative | Test System: AMES SALMONELLA TYPHIMURIUM, Strain/Indicator: TA100, Metabolic Activation: RAT, LIVER, S-9, AROCLOR 1254 (10 OR 30%), Method: PREINCUBATION inactive; negative | Test System: AMES SALMONELLA TYPHIMURIUM, Strain/Indicator: TA100, Metabolic Activation: RAT, LIVER, S-9, AROCLOR, Method: STANDARD PLATE inactive; negative | Test System: AMES SALMONELLA TYPHIMURIUM, Strain/Indicator: TA1535, Metabolic Activation: HAMSTER, LIVER, S-9, AROCLOR 1254 (10 OR 30%), Method: PREINCUBATION inactive; negative | Test System: AMES SALMONELLA TYPHIMURIUM, Strain/Indicator: TA1535, Metabolic Activation: NONE, Method: PREINCUBATION inactive; negative | Test System: AMES SALMONELLA TYPHIMURIUM, Strain/Indicator: TA1535, Metabolic Activation: RAT, LIVER, S-9, AROCLOR 1254 (10 OR 30%), Method: PREINCUBATION inactive; negative | Test System: AMES SALMONELLA TYPHIMURIUM, Strain/Indicator: TA1537, Metabolic Activation: HAMSTER, LIVER, S-9, AROCLOR 1254 (30%), Method: PREINCUBATION inactive; negative | Test System: AMES SALMONELLA TYPHIMURIUM, Strain/Indicator: TA1537, Metabolic Activation: NONE, Method: PREINCUBATION inactive; negative | Test System: AMES SALMONELLA TYPHIMURIUM, Strain/Indicator: TA1537, Metabolic Activation: RAT, LIVER, S-9, AROCLOR 1254 (30%), Method: PREINCUBATION inactive; negative
active: Test System: MOUSE LYMPHOMA, Strain/Indicator: L5178Y (TK+/TK-), Metabolic Activation: NONE, Method: SUSPENSION/PLATE active; positive

CC(=O)[C@]1(C)O[C@@]12C=Cc1ccccc1C2=O
inactive: [5] inactive; negative

CC(=O)N(C(C)=O)c1cc(N=Nc2ccc(C)cc2)ccc1C
inactive: Test System: AMES SALMONELLA TYPHIMURIUM, Strain/Indicator: TA98, Metabolic Activation: NONE, Method: SUSPENSION/PLATE inactive; negative | Test System: AMES SALMONELLA TYPHIMURIUM, Strain/Indicator: TA98, Metabolic Activation: RAT, LIVER, S-9, PHENOBARBITAL AND 5,6-BENZOFLAVONE, Method: SUSPENSION/PLATE inactive; negative | Test System: AMES SALMONELLA TYPHIMURIUM, Strain/Indicator: TA100, Metabolic Activation: NONE, Method: SUSPENSION/PLATE inactive; negative | Test System: AMES SALMONELLA TYPHIMURIUM, Strain/Indicator: TA100, Metabolic Activation: RAT, LIVER, S-9, PHENOBARBITAL AND 5,6-BENZOFLAVONE, Method: SUSPENSION/PLATE inactive; negative

c1cnc2c3c(ccc2c1)C1OC1CC3 (stereo not given)
inactive: [3] inactive; negative

COc1cc(N=Nc2ccccc2)ccc1N=Nc1c(S(=O)(=O)O)cc2ccc(N)cc2c1O
active: [2] active; positive | [4] active; positive | Test System: AMES SALMONELLA TYPHIMURIUM, Strain/Indicator: TA1538, Metabolic Activation: RAT, LIVER, S-9, AROCLOR 1254, Method: STANDARD PLATE active; positive
inactive: [1] inactive; negative | [3] inactive; negative | Test System: AMES SALMONELLA TYPHIMURIUM, Strain/Indicator: TA1538, Metabolic Activation: NONE, Method: STANDARD PLATE inactive; negative
